# Assay results reported in US7718677B2, “Methods and compositions for reduction of side effects of therapeutic treatments” (priority 2007, dated 2010).
# Where “and” joins values, the source holds several entries; their conditions need not be identical. Identical values can stand only once. Like-named read-outs stand apart in the source and are kept apart here.
# Key:
# [1] = test system: MPTP-lesioned squirrel monkeys; assay: Parkinsonism rating on or off levodopa in MPTP-lesioned monkeys; assay type: in vivo, Saimiri sciureus; details: for Parkinson Ratings Expt 1 / Parkinson Ratings Expt 2 (crossover): individual animals, scale 0-28; for Parkinson Ratings Mean ± SE (n): n=5
# Experimental: 1-Methyl-4-phenyl-1,2,3,6-tetrahydropyridine (MPTP) administration: Prior to lesioning, the animals were allowed to acclimate to the colony and rated for parkinsonism as described (Langston et al. Ann Neurol. 2000; 47:S79-89). All values were within the normal range. The monkeys were then injected subcutaneously with 2.0 mg/kg MPTP (Sigma, St-Louis, Mo.) dissolved in saline. The animals were rated for parkinsonism 3-4 weeks after MPTP administration. The disability scores ranged from 0 (normal) to 28 for a severely parkinsonian animal. Animals were assessed for 1) spatial hypokinesia (reduction in use of the available cage space), 2) body bradykinesia (increased slowness in body movement), 3) left and 4) right manual dexterity, 5) balance, 6) freezing and 7) action tremor. If they were not parkinsonian, MPTP injection (1.0-2.0 mg/kg) was repeated from 2-5 times for total doses of 3.5 to 13.5 mg/kg. Despite multiple MPTP dosing, two of the animals were not stably parkinsonian.
# Data analyses: The levodopa treatment protocol used in the present study involved a 5-day-on/2-day-off schedule. Parkinsonian ratings were done on Monday and Friday of each week, with the score averaged over the two days. Dyskinesias ratings were determined by averaging the scores on Wednesday and Thursday of each week. All values are expressed as the mean±SE of the indicated number of animals. Results were compared using paired t-tests or analysis of variance (ANOVA) followed by Bonferroni multiple comparison post hoc test, using Prism® program (GraphPad Software, Inc, San Diego, Calif.). A level of 0.05 was considered significant.
# White bars indicate no nicotine treatment and black bars indicate nicotine treatment. Parkinsonism was evaluated immediately before the afternoon L-dopa dose and 1.5 to 2 hours after L-dopa treatment, when a maximal antiparkinsonian effect is anticipated. Two of the seven animals in the study were not parkinsonian, and therefore were not included in this analysis. Error bars are the means±standard error of five animals before and after crossover of nicotine treatment. **p<0.01, as compared with the same group with no L-dopa treatment by a Mann-Withney test.
# [2] = test system: 6-hydroxydopamine-lesioned rats; details: ROTOMAX, AccuScan System; n=9; saccharin group 8.2+3.7, no difference
# Experimental: Behavioral assessment of the lesion. As an index of nigrostriatal damage, the rats were tested for rotational behavior 3 and 4 weeks after lesioning. This was done using an automated behavioral measurement apparatus that has four cylindrical chambers (50 cm height×34 cm diameter) (ROTOMAX, AccuScan Instruments Inc. Columbus, Ohio, USA). A rat was placed in one of the chambers for 30 min for acclimatization, after which time amphetamine (4 mg/kg ip) was administered as previously described (Visanji et al., 2006, Neuropharmacology 51:506-516). […] The rats were tested a second time one week later and the data from the two testing periods pooled.
# [3] = on levodopa treatment, 1.5-2 hours after dosing
smiles,measurement,setting,value
"CN1CCCC1c1cccnc1 (centres unmarked) [Nicotine, S-3-(1-methyl-2-pyrrolidinyl)pyridine]",Parkinson Ratings Expt 1,[1]; no levodopa treatment,5.2 and 6.6
same,Parkinson Ratings Expt 2 (crossover),[1]; no levodopa treatment,4.1 and 6.4 and 5.9
same,Parkinson Ratings Mean ± SE (n),[1]; no levodopa treatment,5.6 ± 0.5 (5)
same,Parkinson Ratings Expt 1,[1]; [3],1.7 and 1.5
same,Parkinson Ratings Expt 2 (crossover),[1]; [3],0.8 (2×) and 0.4
same,Parkinson Ratings Mean ± SE (n),[1]; [3],1.0 ± 0.2 (5)
same,effect on parkinsonism,[1]; on or off levodopa treatment,did not affect
same,extent of turning,[2],8.4+6.7
same,body weight,minipump 2 mg/kg/d nicotine vs vehicle,similar
same,fluid intake,nicotine in saccharin drinking solution vs vehicle-treated,drank less
same,body weight,"nicotine via drinking water, continued dosing, rats appeared healthy",small difference
